We go through five compounds from patent publication US6660734B1, “Oxazinones having antibacterial activity” (Simon Fraser University, priority 1997, dated 2003).

Assay [1] relates to glutamate-aspartate transaminase. The conditions noted are these: according to Khomutov; cited from earlier work.
The subject of assay [2] is tuberculosis bacilli. The conditions noted are these: according to Khomutov; cited from earlier work.
The test system of assay [3] is Micrococcus luteus. Briefly: Filter disc bioassay on agar plates seeded with Micrococcus luteus. Type of assay: cell-based. The conditions noted are these: for ZONE SIZE: M. luteus, overnight 37° C. Here is the method:
Samples were applied to filter discs in the amounts indicated. The discs were applied to agar plates seeded with Micrococcus luteus, and the plates were incubated overnight at 37° C. The results are illustrated in FIG. 5 and summarized in the following Table 1: Samples were assayed as in Example 3, with the results summarized in the following Table 2: […]

Consider `NC1CCONC1=O` (racemic) [cyclocanaline, 4-amino-tetrahydro-1,2-oxazin-3-one], for which the “inhibition of glutamate-aspartate transaminase” value in assay [1] is reported as “known to lnhibit glutamate-aspartate transaminase”. Besides, the “activity against tuberculosis bacilli” value in assay [2] was “exhibits activity against tuberculosis bacilli”.

With `O=C(O)CN1OC=C(O)CC1=O` [Example 1, 2-Carboxymethyl-5-hydroxy-1,2-oxazin-3-one], the antibacterial activity result in assay [3] (in words, from Tables 1 and 2) is given as “weak antibacterial activity”. Further, in assay [3] (relative to penicillin, from Tables 1 and 2), the “antibacterial activity, times less than that of penicillin” value is listed as “at least 1000 times”.

Regarding `CC(CN1OC=C(O)CC1=O)C(=O)O` (stereo not shown) [Example 2, 2-[2-Carboxypropyl]-5-hydroxy-1,2-oxazin-3-one], the “activity, times the activity of the carboxymethyl product” value in assay [3] (relative to product of Example 1, from Tables 1 and 2) is “approximately 50 times”.

In the case of `CC1=C(C(=O)O)N2C(=O)[C@@H](NC(=O)Cc3ccccc3)[C@H]2SC1` [desacetoxycephalosporin G], the “ZONE SIZE” value in assay [3] (Table 2, 2.5 micrograms on filter disc) is reported as 2.5 cm.

Regarding `CC1(C)S[C@@H]2[C@H](NC(=O)Cc3ccccc3)C(=O)N2[C@H]1C(=O)O` [penicillin G], the “ZONE SIZE” value in assay [3] (Table 1, 0.1 micrograms on filter disc) stood at 1.6 cm.
